{"source": "patent US11154067B2", "about": "“Membrane and method for preservation of produce” (Agricultural Research Council, priority 2015, dated 2021)", "format_in_all_cases": "in vivo", "conditions_in_all_cases": "controlled atmosphere 28 days followed by 7 days at 20° C.", "key": {"Botrytis cinerea": {"tested_on": "Botrytis cinerea", "test": "Postharvest dip trials of apples against Botrytis cinerea"}, "Neofabraea alba": {"tested_on": "Neofabraea alba", "test": "Postharvest dip trials of apples against Neofabraea alba"}, "Penicillium expansum": {"tested_on": "Penicillium expansum", "test": "Postharvest dip trials of apples against Penicillium expansum"}}, "data": [{"smiles": "CCO", "note": "[Ethanol]", "values": [{"measurement": "antimicrobial efficacy indicated as percentage value", "setting": "Botrytis cinerea; 'Golden Delicious' apples", "result": 13.98, "unit": "%"}, {"measurement": "antimicrobial efficacy indicated as percentage value", "setting": "Botrytis cinerea; 'Granny Smith' apples", "result": 16.53, "unit": "%"}, {"measurement": "antimicrobial efficacy indicated as percentage value", "setting": "Botrytis cinerea; 'Pink Lady' apples", "result": 2.88, "unit": "%"}, {"measurement": "antimicrobial efficacy indicated as percentage value", "setting": "Neofabraea alba; 'Golden Delicious' apples", "result": 10.41, "unit": "%"}, {"measurement": "antimicrobial efficacy indicated as percentage value", "setting": "Neofabraea alba; 'Granny Smith' apples", "result": 21.87, "unit": "%"}, {"measurement": "antimicrobial efficacy indicated as percentage value", "setting": "Neofabraea alba; 'Pink Lady' apples", "result": 19.25, "unit": "%"}, {"measurement": "antimicrobial efficacy indicated as percentage value", "setting": "Penicillium expansum; 'Golden Delicious' apples", "result": 18.07, "unit": "%"}, {"measurement": "antimicrobial efficacy indicated as percentage value", "setting": "Penicillium expansum; 'Granny Smith' apples", "result": 18.75, "unit": "%"}, {"measurement": "antimicrobial efficacy indicated as percentage value", "setting": "Penicillium expansum; 'Pink Lady' apples", "result": 0.16, "unit": "%"}]}]}
